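Results reflect a 48-hour exposure of cells in 96-well plates to compound at five concentrations. Abbreviation: GI50, concentration required for 50% inhibition of growth.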 Calls of active or inactive are those of the source. Cut-off read from the data, not from the text of the source: active = GI50 up to about 1.1 µM and inactive = higher.
Tests used:
Assay in all cases: inhibition of tumour cell growth, NCI panel, 48 h
MDA-MB-435 = test system: MDA-MB-435
CAKI-1 = test system: CAKI-1
RPMI-8226 = test system: RPMI-8226
NCI/ADR-RES = test system: NCI/ADR-RES
HCT-15 = test system: HCT-15
UO-31 = test system: UO-31
HCC 2998 = test system: HCC 2998
HCT-116 = test system: HCT-116
NCI-H522 = test system: NCI-H522
SN12C = test system: SN12C
SK-MEL-2 = test system: SK-MEL-2
MDA-MB-231 = test system: MDA-MB-231
ACHN = test system: ACHN
BT-549 = test system: BT-549
NCI-H23 = test system: NCI-H23
M14 = test system: M14
IGROV-1 = test system: IGROV-1
MCF7 = test system: MCF7
RXF 393 = test system: RXF 393

SMILES | GI50 (MDA-MB-435) | GI50 (CAKI-1) | GI50 (RPMI-8226) | GI50 (NCI/ADR-RES) | GI50 (HCT-15) [µM] | GI50 (UO-31) | GI50 (HCC 2998) | GI50 (HCT-116) | GI50 (NCI-H522) | GI50 (SN12C) | GI50 (SK-MEL-2) | GI50 (MDA-MB-231) | GI50 (ACHN) | GI50 (BT-549) | GI50 (NCI-H23) | GI50 (M14) | GI50 (IGROV-1) | GI50 (MCF7) | GI50 (RXF 393)
N#CC1=C(C#N)/C(=C(\C#N)C(C#N)C#N)N=C1N | 16.9 µM (inactive) | 46.2 µM (inactive) | 32.6 µM (inactive) | 50.8 µM (inactive) | 22.6 | 35.5 µM (inactive) | 33.4 µM (inactive) | 27.4 µM (inactive) | 13.8 µM (inactive) | 49.4 µM (inactive) | 14.7 µM (inactive) | 91.4 µM (inactive) | 33.3 µM (inactive) | 24.4 µM (inactive) | 32.1 µM (inactive) | 15.6 µM (inactive) | 50.1 µM (inactive) | 45.8 µM (inactive) | 31.9 µM (inactive)
CCOc1ccc(NC(=O)/C(=N\N)C(C(=O)OC)c2nc3ccc(Cl)cc3nc2O)cc1 (centres undefined) | > 100 µM (inactive) | > 100 µM (inactive) | > 100 µM (inactive) | > 100 µM (inactive) | > 100 | 72.3 µM (inactive) | > 100 µM (inactive) | > 100 µM (inactive) | > 100 µM (inactive) | > 100 µM (inactive) | > 100 µM (inactive) | > 100 µM (inactive) | 45 µM (inactive) | > 100 µM (inactive) | > 100 µM (inactive) | > 100 µM (inactive) | 79.1 µM (inactive) | > 100 µM (inactive) | > 100 µM (inactive)
Cc1sc2nc(-c3cc([N+](=O)[O-])c(Cl)cc3Cl)c(/C=N/NC(=N)N)n2c1C | 3.72 µM (inactive) | 11.9 µM (inactive) | 4.5 µM (inactive) | 31.7 µM (inactive) | 3.61 | 11.4 µM (inactive) | 2.34 µM (inactive) | 4.15 µM (inactive) | 8.47 µM (inactive) | 5.65 µM (inactive) | 1.97 µM (inactive) | 6.61 µM (inactive) | 5.22 µM (inactive) | 3.59 µM (inactive) | 4.08 µM (inactive) | 2.76 µM (inactive) | 2.34 µM (inactive) | 2.86 µM (inactive) | 5.09 µM (inactive)
N=C(N)C(/N=N\c1ccccc1)C(=N)N (centres undefined) | 16.9 µM (inactive) | 38.4 µM (inactive) | 27.9 µM (inactive) | 60.4 µM (inactive) | 49.8 | 30.5 µM (inactive) | 16.5 µM (inactive) | 33.5 µM (inactive) | 36 µM (inactive) | 36.6 µM (inactive) | 23.4 µM (inactive) | 15.3 µM (inactive) | 64.9 µM (inactive) | 39.9 µM (inactive) | 50.4 µM (inactive) | 40.7 µM (inactive) | 33.2 µM (inactive) | 25.6 µM (inactive) | > 100 µM (inactive)
Cc1ccc(/C=N/Nc2ccc3ccccc3n2)s1 | 15.8 µM (inactive) | > 100 µM (inactive) | 14.2 µM (inactive) | 35.5 µM (inactive) | 12 | > 100 µM (inactive) | 15.3 µM (inactive) | 7.78 µM (inactive) | 15.7 µM (inactive) | 13 µM (inactive) | > 100 µM (inactive) | 15.5 µM (inactive) | 17.3 µM (inactive) | 18.2 µM (inactive) | 18.6 µM (inactive) | 16.9 µM (inactive) | 16.3 µM (inactive) | 17.5 µM (inactive) | 37.7 µM (inactive)
C=CCN(c1cc(OCc2ccccc2)c(NC(C)=O)cc1[N+](=O)[O-])S(C)(=O)=O | > 100 µM (inactive) | 42 µM (inactive) | 46.7 µM (inactive) | 29.6 µM (inactive) | > 100 | 33.1 µM (inactive) | > 100 µM (inactive) | 28.5 µM (inactive) | 35.5 µM (inactive) | 29 µM (inactive) | 26.9 µM (inactive) | 15.7 µM (inactive) | 52.7 µM (inactive) | 28.8 µM (inactive) | 18.4 µM (inactive) | 38.3 µM (inactive) | 21.1 µM (inactive) | 52.2 µM (inactive) | 18.7 µM (inactive)
